Source: patent US11066398B2, “Small molecule c-Myc inhibitors” (THE SCRIPPS RESEARCH INSTITUTE, priority 2013, dated 2021)
Converted amounts (≈) assume the structure as drawn. “Also recorded” adds a separate entry of the source. Where two headings read alike, the source gives them in different places.

Columns and labels:
ATG-Myc = ATG-Myc (Homo sapiens, UniProt P01106); assay: Myc-induced oncogenic transformation (focus assay) in chicken embryo fibroblasts; format: cell-based; conditions: for Inhibition of ATG-Myc focus formation: CEF focus assay, concentration of 10 μM; for Inhibition of Myc oncogenic activity in CEF transformation assay: ATG-Myc; for EOT (efficiency of transformation): focus counts in the presence of inhibitor over focus counts of control plates, CEF infected with RCAS ATG-Myc
K-562 = conditions: K-562, 25 or 50 μM, 24 hrs
[1] = tested on: QEF transformed by methylcholanthrene (QT6); conditions: 25 or 50 μM, 24 hrs
HL-60 = conditions: HL-60, 25 or 50 μM, 24 hrs
MYC^332-439 with MAX = MYC^332-439 with MAX (Homo sapiens, UniProt P01106); conditions: HEK293 cells, 20 μM, compared to PKA RII:RII control biosensor
Procedure: (§5) We used an efficient and sensitive PCA biosensor which is based on the PPI involving the full length MAX protein and the C-terminal MAX-interaction-domain in MYC (MYC^332-439).
(§6) HEK293 cells were grown in Dulbecco's Modified Eagle's Medium (DMEM) supplemented with 10% fetal bovine serum (FBS). The indicated Rluc-PCA expression constructs were transiently overexpressed in a 24-well plate format. […] Following treatment, the growth medium was exchanged and cells were resuspended in phosphate buffered saline (PBS). Cell suspensions were transferred to white walled 96-well plates and were subjected to bioluminescence analysis using the LMax II 384 luminometer (Molecular Devices). Rluc bioluminescence signals were integrated for 10 sec following addition of the Rluc substrate benzyl-coelenterazine to intact cells (5 μM; Nanolight).

Pharmacokinetics in rats = format: in vivo, rat; conditions: 1 mg/kg i.v.
Procedure: (§1) In vivo activity of KJ-Pyr-9: Previous Myc inhibitors have not been effective in animal model studies. These failures resulted from insufficient affinity toward Myc and poor pharmacokinetic properties.
(§2) Pharmacokinetics. Three mice were injected with 10 mg/kg KJ-Pyr-9 dissolved in 10:10:80 Tween-80:DMSO:5% Dextrose/water intraperitoneally. At 4 hours concentrations of KJ-Pyr-9 in the plasma and in the brain were 3.5 and 12.4 μM respectively. Rats were dosed with 1 mg/kg i.v.; elimination half lives in plasma were approximately 1.84 h (rats).

MDA-MB-231 = conditions: MDA-MB-231, 216 hrs, 2.5% FBS
[2] = tested on: Burkitt's lymphoma cell lines (Akata, Ramos, Raji); conditions: 72 hours
Procedure: (A) Akata, (B) Ramos, (C) Raji. 10^3 cells were seeded per well on 96-well plates and were treated with the indicated concentrations of KJ-Pyr-9 for 72 hours. Cell proliferation was determined by resazurin fluorescence.

[3] = tested on: normal quail embryo fibroblasts (QEF); conditions: 25 or 50 μM, 24 hrs
[4] = tested on: NDRG1 (N-myc downregulated gene 1); assay: NDRG1 expression by Western blot in MDA-MB-231 and NCI-H460 cells; format: cell-based, human; conditions: 20 μM, 24 hrs
Procedure: (§3) NCI-H460 cells were grown in RPMI medium, and MDA-MB-231 cells were grown in DMEM medium; both media contained 10% FBS. KJ-Pyr-9 and 10058-F4 were added at a concentration of 20 μM and the cells were treated for 24 hrs before Western blot analysis.
(§4) Interference with Myc transcriptional activity of Myc affects the transcription of a large number of target genes and can function as activator or repressor. […] NDRG1 is a direct transcriptional target of Myc that acts as a repressor of this gene. For comparison, we used the previously identified inhibitor of MYC-MAX dimerization that binds to the disordered monomer and prevents Myc from adopting a conformation needed for the interaction with MAX (Wang et al., Mol. Cancer Ther. 6:2399-2408, 2007; and Huang et al., Exp. Hematol. 34:1480-1489, 2006). Both KJ-Pyr-9 and 10058-F4 cause an increase of NDRG1 expression (FIG. 4).

MOLT-4 = conditions: MOLT-4, 25 or 50 μM, 24 hrs
SUM-159PT = conditions: 120 hrs, 2.5% FBS
N-Myc = N-Myc (Homo sapiens, UniProt P04198); conditions: CEF, dose response
Procedure: (§7) Data from a representative experiment conducted with the cells derived from a single chicken embryo.
(§8) The assay of oncogene-induced cellular transformation in CEF was also used to determine selectivity of KJ-Pyr-9 for Myc.
(§9) Assay for oncogenic transformation in cell culture. […] CEF were infected with a series of ten-fold dilutions of the indicated virus. Compounds were added to the nutrient agar overlay. Additional compound-containing overlay was added every 3 days until experimental end point.

[5] = tested on: xenograft of MDA-MB-231 cells; assay: MDA-MB-231 xenograft in nude mice; format: in vivo, mouse; conditions: 10 mg/kg daily i.p.
Procedure: When tumors reached a volume of 100 mm^3 half of the mice were given daily i.p. injections of 10 mg/kg KJ-PYR-9 and the other half received vehicle only. Tumor growth was followed for 31 days. (A) Tumor volumes of treated and untreated animals. (B) Tumor weights of treated and untreated animals. (C) Time course of tumor volumes.
To test the in vivo effectiveness of KJ-Pyr-9, nude mice received a xenograft of MDA-MB-231 cells suspended in Matrigel and injected subcutaneously into the left and right flanks. When the tumors had reached an average volume of 100 mm^3, mice were treated daily with 10 mg/kg KJ-Pyr-9 or vehicle control by intraperitoneal injection for 31 days. […] At the conclusion of the experiment the tumors were extracted and weighed. […] Treatment with KJ-Pyr-9 had no effect on the body weight of the animals.
Xenograft experiments. […] Tumor volume and mouse weight were measured daily. […] Tumors were weighed.
Statistical methods. Tumor volumes were calculated using (length)×(width)^2. Tumor volumes were evaluated using Efron's Bootstrap (ISBN:0412042312) procedures as implemented in the R statistics program (Wu and Houghton, J. Biopharma. Stat. 19:755-762, 2009). Mean volumes and 90% confidence intervals were determined using bootstrap resampling with 10^6 randomizations and graphed using the ggplot2 package (ISBN:0387981403). P-values were determined using the resampling permutation method with 10^6 randomizations.

human fibroblasts (hFB) = conditions: 25 or 50 μM, 24 hrs
NDRG1 = conditions: 10 mg/kg daily i.p., Western blot of frozen tumor samples
Procedure: In order to determine drug activity in tumor cells, protein lysates were prepared from frozen tumor samples and analyzed by Western blot.
Xenograft experiments. […] Cells were suspended in high concentration Matrigel (BD Biosciences) prior to injection. Xenograft tumors were allowed to grow until the average volume of the tumors reached 100 mm^3 as measured by external calipers. At this point, the mice were divided into two groups. […] Tumor volume and mouse weight were measured daily. Vehicle used in all cases was 10:10:80 DMSO:Tween-80:5% dextrose in water. The mice were treated for a period of 31 days. At the end of the experiment, the mice were euthanized and tumors excised. Tumors were weighed. Samples of each tumor were fixed in formalin for histology and frozen for Western blotting. All vertebrate experiments were conducted with the approval of the TSRI IACUC.

NCI-H460 = conditions: NCI-H460, 72 hrs, 2.5% FBS
[6] = Pharmacokinetics and tolerability in mice; format: in vivo, mouse; conditions: for concentration at 4 h: ip, mice, 10 mg/kg intraperitoneally
Procedure: as §1, §2

MAX homodimerization = MAX homodimerization (Homo sapiens, UniProt P61244); conditions: HEK293 cells, 20 μM
Procedure: as §5, §6

v-Jun = v-Jun (Avian sarcoma virus, UniProt P05411); conditions: CEF, dose response
Procedure: as §7, §8, §9

MYC = assay: Myc levels by Western blot in MDA-MB-231 and NCI-H460 cells; format: cell-based, human; conditions: 20 μM, 24 hrs
Procedure: as §3, §4

Solubility in water = format: physicochemical
v-Src = v-Src (Rous sarcoma virus subgroup A, UniProt P00524); conditions: CEF, dose response
Procedure: as §7, §8, §9

SW-480 = conditions: SW-480, 25 or 50 μM, 24 hrs
[7] = tested on: QEF oncogenically transformed by the v-jun oncogene (VJ); conditions: 25 or 50 μM, 24 hrs
[8] = tested on: cells transformed by v-myc (Q8, QEF/MC29)
v-src, and v-jun = conditions: CEF specificity assay
Procedure: as §9
The specificity of the inhibitory activities of the analog compounds was also examined.

Chain of ATG-Myc (P01106 whole entry): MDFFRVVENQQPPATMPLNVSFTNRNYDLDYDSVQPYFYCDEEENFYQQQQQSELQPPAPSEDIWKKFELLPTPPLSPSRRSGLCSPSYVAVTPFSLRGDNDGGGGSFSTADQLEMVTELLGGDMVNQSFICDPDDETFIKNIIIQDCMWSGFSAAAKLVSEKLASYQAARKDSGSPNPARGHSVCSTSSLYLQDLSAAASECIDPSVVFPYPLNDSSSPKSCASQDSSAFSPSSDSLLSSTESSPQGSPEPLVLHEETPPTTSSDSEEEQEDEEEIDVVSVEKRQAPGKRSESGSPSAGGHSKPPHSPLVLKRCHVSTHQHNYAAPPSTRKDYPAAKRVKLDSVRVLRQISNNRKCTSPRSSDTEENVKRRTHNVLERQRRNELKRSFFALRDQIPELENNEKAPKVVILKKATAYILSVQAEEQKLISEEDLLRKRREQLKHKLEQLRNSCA
Chain of MAX homodimerization (P61244 whole entry): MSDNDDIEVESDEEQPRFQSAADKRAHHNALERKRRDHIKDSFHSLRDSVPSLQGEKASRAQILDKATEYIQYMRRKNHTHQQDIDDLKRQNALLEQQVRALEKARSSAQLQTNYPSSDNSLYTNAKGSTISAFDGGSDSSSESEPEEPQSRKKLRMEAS
Chain of MYC^332-439 with MAX (P01106 347-454): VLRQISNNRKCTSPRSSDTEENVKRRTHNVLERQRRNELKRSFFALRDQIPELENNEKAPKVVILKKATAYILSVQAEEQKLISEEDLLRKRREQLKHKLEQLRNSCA
Chain of v-Jun (P05411 whole entry): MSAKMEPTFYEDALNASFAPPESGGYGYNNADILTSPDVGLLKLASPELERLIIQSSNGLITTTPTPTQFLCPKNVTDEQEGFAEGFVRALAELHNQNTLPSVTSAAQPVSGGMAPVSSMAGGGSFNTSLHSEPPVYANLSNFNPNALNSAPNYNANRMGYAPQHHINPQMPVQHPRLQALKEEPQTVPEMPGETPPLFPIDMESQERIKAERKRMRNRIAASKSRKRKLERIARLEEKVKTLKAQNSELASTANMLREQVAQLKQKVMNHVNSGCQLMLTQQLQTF
Chain of N-Myc (P04198 whole entry, species assumed): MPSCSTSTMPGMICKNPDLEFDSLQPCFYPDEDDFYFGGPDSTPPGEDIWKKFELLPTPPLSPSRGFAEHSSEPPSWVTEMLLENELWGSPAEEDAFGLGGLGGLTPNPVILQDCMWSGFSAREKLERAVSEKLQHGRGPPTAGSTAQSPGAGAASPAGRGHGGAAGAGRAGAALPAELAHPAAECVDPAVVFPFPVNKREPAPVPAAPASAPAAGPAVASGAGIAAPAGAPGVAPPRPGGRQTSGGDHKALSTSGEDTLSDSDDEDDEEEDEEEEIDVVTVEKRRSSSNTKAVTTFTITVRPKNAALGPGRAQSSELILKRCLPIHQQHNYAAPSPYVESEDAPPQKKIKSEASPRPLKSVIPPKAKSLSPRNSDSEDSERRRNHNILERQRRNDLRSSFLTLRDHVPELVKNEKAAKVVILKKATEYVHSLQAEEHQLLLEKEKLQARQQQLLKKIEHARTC
Chain of v-Src (P00524 whole entry): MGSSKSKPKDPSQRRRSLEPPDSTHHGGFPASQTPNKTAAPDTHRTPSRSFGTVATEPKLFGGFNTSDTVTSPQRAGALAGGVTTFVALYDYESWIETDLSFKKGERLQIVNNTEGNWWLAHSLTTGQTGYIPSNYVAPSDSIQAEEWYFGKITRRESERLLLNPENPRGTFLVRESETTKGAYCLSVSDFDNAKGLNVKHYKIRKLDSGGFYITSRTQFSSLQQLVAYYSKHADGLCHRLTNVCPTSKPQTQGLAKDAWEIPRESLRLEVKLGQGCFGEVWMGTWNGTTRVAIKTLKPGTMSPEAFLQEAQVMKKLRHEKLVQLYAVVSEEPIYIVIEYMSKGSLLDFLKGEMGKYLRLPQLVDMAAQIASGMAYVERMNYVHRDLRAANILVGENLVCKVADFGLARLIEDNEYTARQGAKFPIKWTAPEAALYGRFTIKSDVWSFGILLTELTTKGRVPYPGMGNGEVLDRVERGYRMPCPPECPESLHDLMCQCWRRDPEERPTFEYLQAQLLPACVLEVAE

With `NC(=O)c1ccc(-c2cc(-c3ccc([N+](=O)[O-])cc3)nc(-c3ccc(Br)cn3)c2)cc1` [CG-RS-123] the “Inhibition of ATG-Myc focus formation” value (ATG-Myc) was “no inhibition”.
For `CS(=O)(=O)c1ccc(-c2cc(-c3ccc(C(N)=O)cc3)cc(-c3ccco3)n2)cc1` [CG-RS-58], the “Inhibition of ATG-Myc focus formation” value (ATG-Myc) was “no inhibition”.
In the case of `NC(=O)c1ccc(-c2cc(-c3ccc([N+](=O)[O-])cc3)nc(-c3ccco3)c2)o1` [CG-RS-50, 5-(2-(furan-2-yl)-6-(4-nitrophenyl)pyridin-4-yl)furan-2-carboxamide], the “Inhibition of ATG-Myc focus formation” value (ATG-Myc) is reported as “some inhibiting activities” and the “Inhibition of Myc oncogenic activity in CEF transformation assay” value (ATG-Myc) is reported as “effective”.
For `COC(=O)c1cccc(-c2cc(-c3ccc(C(N)=O)cc3)cc(-c3ccco3)n2)c1` [CG-RS-70], the “Cell growth in CEF focus assay” value (ATG-Myc) was “slight decrease in cell growth” and the “Inhibition of ATG-Myc focus formation” value (ATG-Myc) was “no foci formation”.
In the case of `NC(=O)c1ccc(-c2cc(-c3ccc([N+](=O)[O-])cc3)nc(-c3ccccn3)c2)cc1` [CG-RS-128], the “Inhibition of ATG-Myc focus formation” value (ATG-Myc) is reported as “no inhibition”.
For `NC(=O)c1ccc(-c2cc(-c3ccc(OC(F)(F)F)cc3)nc(-c3ccco3)c2)cc1` [CG-RS-55], the “Inhibition of ATG-Myc focus formation” value (ATG-Myc) was “some inhibiting activities”.
In the case of `COC(=O)c1ccc(-c2cc(-c3ccc(C(N)=O)cc3)cc(-c3ccco3)n2)cc1` [CG-RS-64], the “Inhibition of ATG-Myc focus formation” value (ATG-Myc) is reported as “no inhibition”.
For `NC(=O)c1ccc(-c2cc(-c3ccc([N+](=O)[O-])cc3)nc(-c3ccco3)c2)cc1` [CG-RS-44, 4-(2-(furan-2-yl)-6-(4-nitrophenyl)pyridin-4-yl)benzamide], the Cell proliferation (K-562) was “strongly inhibited”, the Cell growth [1] was “only slightly impaired in their growth” and the Cell proliferation (HL-60) was “strongly inhibited”. The “Dose dependence of inhibition of ATG-Myc focus formation” value (ATG-Myc; 0-20 μM (0, 1.25, 2.5, 5, 10, and 20 μM)) was “dose-dependent inhibition”, the “Comparison of IC50 values for ATG-Myc focus formation” value (ATG-Myc; CEF assay) was “better than all analogs tested” and the “Inhibition of ATG-Myc focus formation” value (ATG-Myc) was “no foci formation”. For the same molecule, the “Inhibition of Myc oncogenic activity in CEF transformation assay” value (ATG-Myc; listed as KJ-Pyr-9) was “effective; also recorded: strongly inhibited”, the “Complex formation of MYC^332-439 with MAX (Rluc PCA)” value (MYC^332-439 with MAX) was “selectively reduced complex formation” and the “Elimination half life in plasma” value (Pharmacokinetics in rats) was “approximately 1.84 h”. The Cell proliferation (MDA-MB-231) was “inhibited”, the Cell proliferation [2] was “very sensitive” and the Cell growth [3] was “only slightly impaired in their growth”. The NDRG1 expression [4] was “increase”, the Cell proliferation (MOLT-4) was “strongly inhibited” and the Cell proliferation (SUM-159PT) was “inhibited”. The “Inhibition of oncogenic activity of N-Myc” value (N-Myc) was “strongly inhibited”, the “Body weight of the animals” value ([5]; 31 days) was “no effect” and the Tumor volume ([5]; by day 31) was “had not increased significantly”. For the same molecule, the Tumor weight ([5]; end of experiment (31 days)) was “halt tumor growth”, the “Onset of inhibition of tumor growth” value ([5]; nude mice) was “noted after eight days of treatment” and the Cell proliferation (human fibroblasts (hFB)) was “not affected”. For the same molecule, the “Expression of NDRG1 in tumor lysates” value (NDRG1) was “significantly enhanced”, the Cell proliferation (NCI-H460) was “inhibited” and the Acute toxicity ([6]; dose of 10 mg/kg) was “no signs of acute toxicity”. For the same molecule, the concentration at 4 h ([6]; mouse, brain, read-out: Concentration in the brain) was 12.4 µM, the “Blood brain barrier penetration” value ([6]; mouse, in vivo) was “crossed the blood brain barrier” and the “Brain versus blood concentration” value ([6]; mouse, in vivo) was “higher concentrations in brain tissue than in the blood”. The concentration at 4 h ([6]; mouse, plasma, read-out: Concentration in the plasma) was 3.5 µM, the “MAX homodimerization (Rluc PCA)” value (MAX homodimerization) was “interfered with MAX homodimerization, albeit to a lesser degree” and the “Inhibition of oncogenic transformation by v-Jun” value (v-Jun) was “inhibited at significantly higher concentrations”. For the same molecule, the “Effect on Myc levels” value (MYC) was “only a slight effect”, the solubility (Solubility in water) was 12.5 µM (≈ 4.82 µg/mL) and the “Inhibition of oncogenic transformation by v-Src” value (v-Src) was “unaffected”. For the same molecule, the Cell proliferation (SW-480) was “not affected”, the Cell growth [7] was “only slightly impaired in their growth” and the Cell growth [8] was “significantly more affected”.
With `NC(=O)c1ccc(-c2cc(-c3ccc(C(F)(F)F)cc3)nc(-c3ccco3)c2)cc1` [CG-RS-54] the “Inhibition of ATG-Myc focus formation” value (ATG-Myc) was “some inhibiting activities”.
With `N#Cc1ccc(-c2cc(-c3ccc(C(N)=O)cc3)cc(-c3ccco3)n2)cc1` [CG-RS-47] the “Inhibition of ATG-Myc focus formation” value (ATG-Myc) was “no foci formation” and the “Specificity for inhibiting Myc over v-src, 111047R and v-jun” value (v-src, and v-jun) was “some degrees of specificity”.
For `COc1ccc(-c2cc(-c3ccc(C(N)=O)o3)cc(-c3ccco3)n2)cc1` [KJ-Pyr-6, 5-(2-(furan-2-yl)-6-(4-methoxyphenyl)pyridin-4-yl)furan-2-carboxamide], the “EOT (efficiency of transformation)” value (ATG-Myc) was 0.79.
In the case of `NC(=O)c1ccc(-c2cc(-c3ccc(Br)cc3)nc(-c3ccc([N+](=O)[O-])cc3)c2)cc1` [CG-RS-90], the “Inhibition of ATG-Myc focus formation” value (ATG-Myc) is reported as “no inhibition”.
For `NC(=O)c1ccc(-c2cc(-c3ccc(SC(F)(F)F)cc3)nc(-c3ccco3)c2)cc1` [CG-RS-61], the “Inhibition of ATG-Myc focus formation” value (ATG-Myc) was “no inhibition”.
With `NC(=O)c1ccc(-c2ccc(-c3cc(-c4ccccc4)nc(-c4ccco4)c3)cc2)cc1` [KJ-Pyr-4, 4′-(2-(furan-2-yl)-6-phenylpyridin-4-yl)-[1,1′-biphenyl]-4-carboxamide] the “EOT (efficiency of transformation)” value (ATG-Myc) was 1.12.
In the case of `NC(=O)c1ccc(-c2cc(-c3ccc([N+](=O)[O-])cc3)nc(-c3cccc(Br)n3)c2)cc1` [CG-RS-106], the “Inhibition of ATG-Myc focus formation” value (ATG-Myc) is reported as “no inhibition”.
With `CCc1ccc(/C=C2/SC(=S)NC2=O)cc1` [Compound 10058-F4, reference compound] the NDRG1 expression [4] was “increase” and the “Effect on Myc levels” value (MYC) was “strong decrease”.
With `NC(=O)c1ccc(-c2cc(-c3ccncc3)nc(-c3ccc([N+](=O)[O-])cc3)c2)cc1` [CG-RS-129] the “Cell growth in CEF focus assay” value (ATG-Myc) was “slight decrease in cell growth”, the “Inhibition of ATG-Myc focus formation” value (ATG-Myc) was “no foci formation” and the “Specificity for inhibiting Myc over v-src, 111047R and v-jun” value (v-src, and v-jun) was “some degrees of specificity”.
In the case of `NC(=O)c1ccc(-c2cc(-c3ccc([N+](=O)[O-])cc3)nc(-c3ccccc3Br)c2)cc1` [CG-RS-91], the “Inhibition of ATG-Myc focus formation” value (ATG-Myc) is reported as “no inhibition”.
